Converted amounts (≈) assume the structure as drawn. Where two headings read alike, the source gives them in different places.
What was measured:
[1] = tested on: rat MCT+PN model; experiment: Telemetry of pulmonary artery pressure in rat MCT+PN model; format: in vivo; conditions: rat MCT+PN
Procedure: Pneumonectomy and implantation of a TRM53P telemetry monitor in the pulmonary artery (Telemetry Research, New Zealand and ADInstruments, Colorado) was carried out in rats. Two weeks after MCT, PK10453 (Structure 2) was administered three times daily for 1 week. […] The two groups underwent 4 min exposures of either the vehicle control or PK10453 (Structure 2). Sampling of PA pressure was performed 5 min before each morning dose in ambulatory animals in room air (estimated atmospheric pressure 716 mm Hg based on elevation of animal facility). […] Telemetry data was obtained for 10 min daily before each morning dose for this protocol.

[2] = tested on: PDGFAA stimulated phosphorylation of ERK1 and ERK2; experiment: PDGFAA stimulated phosphorylation of ERK1 and ERK2 in human fetal lung fibroblasts; format: cell-based; conditions: 1 uM; PDGFAA 10 ng/ml
From the text: (§1) Data shown are mean±SEM. […] PK10453=structure 2; PK10571=structure 2a. Platelet derived growth factor receptor alpha=PDGFR-alpha=PDGFR-α=PDGF receptor alpha=PDGF alpha receptor. Platelet derived growth factor receptor beta=PDGFR-beta=PDGFRβ=PDGF receptor beta=PDGF beta receptor.

[3] = typically; cited from earlier work
[4] = Solubility experiments in ethanol/water
From the text: To maximize the amount of hydrophobic shell former (Leucine) on the surface, a higher ratio is desired.

[5] = tested on: PDGFBB stimulated AKT phosphorylation; experiment: In cell Western, PDGFBB stimulated AKT phosphorylation in human fetal lung fibroblasts; format: cell-based; conditions: for IC50 for inhibiting PDGFBB stimulated AKT phosphorylation relative to imatinib: fetal human lung fibroblasts, FIG. 18
Procedure: HLFs were maintained in subculture at no more than 6 passages in DMEM with 5% FBS and 4 mM Glutamax at 37° C., 5% CO2. HLFs were plated and grown to 70-80% confluence in 96 well plates then serum-starved for 48 hours. […] Antibodies were detected using IRDye 680LT goat anti-mouse IgG and IRDye 800 W goat α-rabbit IgG conjugated antibodies. After washing, the signal was quantified using an Odyssey Infrared Imaging System (LI-COR). Phosphoprotein signal (800 nm) was normalized to total protein signal (700 nm) acquired from each well and experimental duplicates on same plate were averaged and reported.

[6] = biological target: PDGFRbeta (Homo sapiens, UniProt P09619); conditions: FIG. 25
Procedure: A Z-lyte kinase assay was performed to determine the inhibition of PDGFRalpha and PDGFRbeta mediated phosphorylation by PK10453 (Structure 2). Ten point titration curves were modeled to calculate the IC50 (Invitrogen Select Screen®).

[7] = tested on: rat monocrotaline pneumonectomy model; conditions: inhaled twice daily for ten days
Procedure: Study protocol: male Sprague Dawley rats underwent left pneumonectomy and 10 days later were given monocrotaline 50 mg/kg IP.
Plethysmography was performed with an EMKA 2 chamber body plethysmograph and data acquired with IOX software. Statistical analysis was performed with XLSTAT.

[8] = tested on: rat MCT+PN model; experiment: Inhaled PK10571 dry powder in rat MCT+PN model, PA telemetry; format: in vivo
From the text: We performed a pre-clinical efficacy study of inhaled PK10571 in the rat MCT+PN model. We used the MCT+PN model, because in this model, neointimal pulmonary arteriole proliferative lesions occur in a manner similar to what is observed in the human disease. In this experiment, drug treatment was started later than in prior studies of PK10453.
In prior studies, PK10453 was started 2 weeks after MCT injection (3 weeks after pneumonectomy). In the PK10571 SDD study, treatment was started 3 weeks after MCT injection (4 weeks after pneumonectomy). It should be noted that pneumonectomized rats given MCT develop severe PAH starting two weeks after the MCT injection. (In MCT only rats, it takes longer for PAH to develop (i.e., 3 weeks)). […] A. PK10453 study time drug treatment started (See Pulm Circ 2014 8(1):82-102). B. PK10571 SDD study time treatment started in MCT+PN model. C. Start time typical for MCT only model. Data acquired via telemetry monitoring of PA pressures in ambulatory rats. (Note: Day 11 in MCT+PN model data not shown).
PK10571 dry powder with leucine and trehalose excipient was administered by nose only inhalation 30 minutes (on average) twice a day to the rats, via a Vilnius Dry Powder Generator connected to a CH Technologies Exposure tower. Estimated average API dose deposited in lung 0.25 mg/kg (calculated from measurement of aerosol concentration and minute ventilation of pneumonectomized rat) with estimated human dose equivalent (HED) 0.04 mg/kg. […] The mode of death of these animals has not been fully characterized but may be related to RV failure. We have noted that although pulmonary pressures rise gradually and progressively over a period of two weeks after MCT injection, in the third week, animals may enter a “crisis” phase and die suddenly. […] This finding confirms the disease modifying potential of PK10571. One animal in the drug treatment group was euthanized for weight loss on day 5 as per our preset criteria.

[9] = tested on: phosphorylated PDGF receptor beta (Y751, Y1021); experiment: Western blot of phosphorylated PDGF receptor beta in adult human lung fibroblasts; conditions: HLFa; 0.01-10 uM, 30 min pre-treatment; 10 ng/mL PDGF BB 7.5 minutes
Procedure: FIG. 40 PANEL A illustrates pPDGFrBeta (Y751), Beta-Actin, Stripped and reprobed with Total PDGFrBeta, note that 25 ug/lane was loaded, with a 1:500 dilution of pPDGFrBeta(Y751) antibody during incubation.
FIG. 40 PANEL B illustrates pPDGFrBeta (Y1021), Beta-Actin, Stripped and reprobed with Total PDGFrBeta, note that 25 ug/lane was loaded, with a 1:500 dilution of pPDGFrBeta(Y1021) antibody during incubation.

[10] = tested on: PDGFBB stimulated phosphorylation of ERK1 and ERK2; experiment: PDGFBB stimulated phosphorylation of ERK1 and ERK2 in human fetal lung fibroblasts; format: cell-based
From the text: as §1

[11] = tested on: SU5416/hypoxia/normoxia model of PAH; experiment: PK10571 in SU5416/hypoxia/normoxia model of PAH; format: in vivo, rat
Procedure: The SU5416/hypoxia/normoxia model of PAH is well described in the field, is considered to accurately reflect the human disease of PAH and to predict drug response in humans^25. Study animals were administered SU5416 20 mg/kg SQ and placed in a COY Hypoxia chamber at FiO2=10%. Animals studied after 1 week hypoxia; 2 weeks hypoxia/12 days normoxia; 3 weeks hypoxia/12 days normoxia; and 3 weeks hypoxia/5 weeks normoxia. End of study procedures included acquisition of right ventricular pressure volume loops with a Scisense Admittance system. The RV PV loops were acquired on ventilated open chest animals with isoflurane anesthesia and 100% F1O2. In addition a subset of animals had implantation of DSI PAC40 telemetry catheters in the PA. In this subset, PA pressures were monitored continuously in ambulatory animals, and analysis of PA pressures before and after dosing was performed for 7 days of dosing.
PK10571/trehalose/leucine dry powder or Vehicle was administered twice a day via the CH Technologies Exposure System, in the SUGEN5416/2 week hypoxia/normoxia 2 week subgroups.
In the SU5416 model we also examined microfil radiopaque casts of the pulmonary arterial circulation with microCT and 3D reconstruction. The casts were made after flushing the pulmonary circulation of the rats with heparinized saline followed by sodium nitroprusside to maximally vasodilate the pulmonary arterial vessels. Microfil was then injected with a syringe pump at 0.2 ml/min until the proximal PA was engorged and a lattice of microfil was visible in the peripheral lung. The chest was filled with ice saline until the microfil was cured. […] Vehicle treated animal on left. PK10571 treated animal on right. Resolution: 20 microns.

[12] = dry powder with leucine and trehalose, inhaled twice a day, within treatment group

Sequence of PDGFRbeta (P09619 600-962 limits assumed): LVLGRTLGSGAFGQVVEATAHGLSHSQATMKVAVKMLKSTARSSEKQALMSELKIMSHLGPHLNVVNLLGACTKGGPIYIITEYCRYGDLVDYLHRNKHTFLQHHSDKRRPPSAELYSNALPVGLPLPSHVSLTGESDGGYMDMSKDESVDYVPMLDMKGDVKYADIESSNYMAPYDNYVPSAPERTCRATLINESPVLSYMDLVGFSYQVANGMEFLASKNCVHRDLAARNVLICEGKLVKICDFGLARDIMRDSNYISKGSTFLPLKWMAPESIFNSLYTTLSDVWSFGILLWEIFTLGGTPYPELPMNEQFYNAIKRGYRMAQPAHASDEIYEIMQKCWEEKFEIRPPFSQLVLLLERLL

With `Cc1ccc(NC(=O)c2ccc(CN3CCN(C)CC3)cc2)cc1Nc1nccc(-c2cccnc2)n1` [Imatinib, reference compound] the “efficacy by inhalation in the MCT+PN model” value [1] was “not effective” and the “decrease of PDGF AA stimulated ppERK1 and ppERK2 formation” value [2] was “equally effective”.
In the case of `CC(C)C[C@H](N)C(=O)O` [L-Leucine], the “solubility in EtOH” value [3] is listed as “insoluble”, the solubility in water [3] is listed as 25 to 30 mg/mL and the “concentration obtained with a 2:1 EtOH:H2O mixture” value [4] is listed as “up to 13 mg/ml”. For the same compound, the “concentration at which precipitated, 1:1 v:v EtOH:H2O solution” value ([4]; room temperature) was 5000 to 10000 µg/mL.
For `COc1cc(-c2cncc(N[C@@H](C)c3cccc(NC(=O)c4cnc(C#N)nc4)c3)n2)ccc1O` [PK10467], the “IC50 for inhibiting PDGFBB stimulated AKT phosphorylation relative to imatinib” value [5] was “lower IC50 concentration compared to imatinib”.
For `C=CS(=O)(=O)NCc1ccc(C(=O)Nc2cccc([C@H](C)Nc3cncc(-c4ccc(O)c(OC)c4)n3)c2)cc1` [PK10468], the “IC50 for inhibiting PDGFBB stimulated AKT phosphorylation relative to imatinib” value [5] was “lower IC50 concentration compared to imatinib”.
With `COc1cc(-c2cncc(N[C@@H](C)c3cccc(NC(=O)c4cncc(C)c4)c3)n2)ccc1C` [PK10569] the “IC50 for inhibiting PDGFBB stimulated AKT phosphorylation relative to imatinib” value [5] was “lower IC50 concentration compared to imatinib”.
For `COc1ccc(-c2cncc(N[C@@H](C)c3cccc(NC(=O)c4cncc(C)c4)c3)n2)cc1OC` [PK10571], the “potency against PDGFR beta kinase domain relative to imatinib” value [6] was “more potent than imatinib”, the “airway resistance compared to vehicle” value [7] was “no significant difference” and the “minute ventilation compared to vehicle” value [7] was “no significant difference”. The “respiratory rate compared to vehicle” value [7] was “lower”, the “tidal volume compared to vehicle” value [7] was “significantly improved” and the “decrease of PDGF AA stimulated ppERK1 and ppERK2 formation” value [2] was “equally effective”. For the same compound, the “effect on pulmonary artery pressures” value ([8]; dry powder containing leucine and trehalose) was “effective in lowering pulmonary artery pressures”, the “reduction of PA pressure, day 8 compared to day 1” value [8, 12] was 22% and the “reduction of PA pressure, day 8 vs. day 3” value [8, 12] was 35%. For the same compound, the “PA systolic pressure post dose (approximately 1 hour) vs pre-dose” value ([8]; early stage of treatment, up to day 4) was “transient decrease”, the “phosphorylation of PDGF receptor beta” value [9] was “decreases phosphorylation” and the “decrease of PDGF BB stimulated ppERK1 and ppERK2 relative to imatinib” value ([10]; 1 uM and 10 uM) was “more effective”. For the same compound, the “decrease of PDGFBB stimulated ppERK1 formation” value ([10]; 1 uM, PDGF BB 10 ng/ml) was “effective”, the IC50 ([5]; Homo sapiens, Fibroblast, FIG. 26, each concentration in duplicate, read-out: IC50, PDGF BB stimulated pAKT in human lung fibroblasts) was 50 nM and the “IC50 for inhibiting PDGFBB stimulated AKT phosphorylation relative to imatinib” value [5] was “lower IC50 concentration compared to imatinib”. For the same compound, the solubility ([4]; aqueous with cosolvent or surfactant or cyclodextrin) was 50 mg/mL (≈ 106 mM), the solubility ([4]; organic solvent or mixture) was 50 mg/mL (≈ 106 mM) and the solubility in water ([4]; pH 7) was “insoluble”. For the same compound, the “RV end systolic pressure compared to vehicle” value ([11]; SU5416, 2 weeks hypoxia, 12 days normoxia, PK10571/trehalose/leucine dry powder twice a day) was “significant reduction”, the “PA systolic pressure after dosing compared to before dosing” value ([11]; on some days, telemetry) was “significant decrease” and the “3D microCT of pulmonary arterial vasculature” value ([11]; preliminary, compared to vehicle treated animal) was “more third and fourth generation branches”.

— patent US20180193336A1, “SPRAY DRY FORMULATIONS” (Pulmokine, Inc., priority 2013, published 2018)
